Test results reported in patent US8933230B2, “Phosphorus-containing group-substituted quinoline, its preparation process, medical composition containing the compounds and application” (priority 2011, dated 2015).

Columns and labels:
Assay in all cases: KinomeScan kinase panel
Format in all cases: binding
[1] = target: T1, RPS6KA5(kin.Dom.2-C-termimal) (Homo sapiens, UniProt O75582)
T1 construct: kin.Dom.2; purchased DiscoveRx Corporation
Procedure, shortened: (§1)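 Broad-panel profiling: KinomeScan, 442 wild-type and mutant kinases, each exposed to compound at 1000 nM.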

KIT(A829P) = target: T2, KIT(A829P) (Homo sapiens, UniProt P10721, A829P)
T2 construct: purchased DiscoveRx Corporation (KinomeScan)
Procedure, shortened: as §1

PIK3CA(Q546K) = target: T3, PIK3CA(Q546K) (Homo sapiens, UniProt P42336, Q546K)
T3 construct: purchased DiscoveRx Corporation (KinomeScan)
Procedure, shortened: as §1

PDGFRB = target: T4, PDGFRB (Homo sapiens, UniProt P09619)
T4 construct: purchased DiscoveRx Corporation (KinomeScan panel)
Procedure, shortened: as §1

JNK2 = target: T5, JNK2 (Homo sapiens, UniProt P45984)
T5 construct: purchased DiscoveRx Corporation (KinomeScan)
Procedure, shortened: as §1

CSR1 = target: T6, CSR1 (Homo sapiens, UniProt O95747)
T6 construct: purchased DiscoveRx Corporation (KinomeScan panel)
Procedure, shortened: as §1

PFTK = target: T7, PFTK (Homo sapiens, UniProt O94921)
T7 construct: purchased DiscoveRx Corporation (KinomeScan)
Procedure, shortened: as §1

ULK3 = target: T8, ULK3 (Homo sapiens, UniProt Q6PHR2)
T8 construct: purchased DiscoveRx Corporation (KinomeScan service)
Procedure, shortened: as §1

CAMK4 = target: T9, CAMK4 (Homo sapiens, UniProt Q16566)
T9 construct: purchased DiscoveRx Corporation (KinomeScan)
Procedure, shortened: as §1

LIMK1 = target: T10, LIMK1 (Homo sapiens, UniProt P53667)
T10 construct: purchased DiscoveRx Corporation (KinomeScan)
Procedure, shortened: as §1

[2] = target: T11, RPS6KA5(kin.Dom.1-N-termimal) (Homo sapiens, UniProt O75582)
T11 construct: kin.Dom.1; purchased DiscoveRx Corporation
Procedure, shortened: as §1

PRKG1 = target: T12, PRKG1 (Homo sapiens, UniProt Q13976)
T12 construct: purchased DiscoveRx Corporation (KinomeScan)
Procedure, shortened: as §1

RIPK4 = target: T13, RIPK4 (Homo sapiens, UniProt P57078)
T13 construct: purchased DiscoveRx Corporation
Procedure, shortened: as §1

MINK = target: T14, MINK (Homo sapiens, UniProt Q8N4C8)
T14 construct: purchased DiscoveRx Corporation (KinomeScan)
Procedure, shortened: as §1

DMPK2 = target: T15, DMPK2 (Homo sapiens, UniProt Q6DT37)
T15 construct: purchased DiscoveRx Corporation (KinomeScan)
Procedure, shortened: as §1

EGFR(S752-1759del) = target: T16, EGFR(S752-1759del) (Homo sapiens, UniProt P00533, DEL752-759)
T16 construct: purchased DiscoveRx Corporation (KinomeScan)
Procedure, shortened: as §1

NEK3 = target: T17, NEK3 (Homo sapiens, UniProt P51956)
T17 construct: purchased DiscoveRx Corporation (KinomeScan panel)
Procedure, shortened: as §1

CSNK1D = target: T18, CSNK1D (Homo sapiens, UniProt P48730)
T18 construct: purchased DiscoveRx Corporation (KinomeScan)
Procedure, shortened: as §1

KIT(D816H) = target: T19, KIT(D816H) (Homo sapiens, UniProt P10721, D816H)
T19 construct: purchased DiscoveRx Corporation (KinomeScan)
Procedure, shortened: as §1

CSNK1G1 = target: T20, CSNK1G1 (Homo sapiens, UniProt Q9HCP0)
T20 construct: purchased DiscoveRx Corporation (KinomeScan)
Procedure, shortened: as §1

MAP4K3 = target: T21, MAP4K3 (Homo sapiens, UniProt Q8IVH8)
T21 construct: purchased DiscoveRx Corporation (KinomeScan)
Procedure, shortened: as §1

GCN2(kin.dom.2.S808G) = target: T22, GCN2(kin.dom.2.S808G) (Homo sapiens, UniProt Q9P2K8, S808G)
T22 construct: GCN2(kin.dom.2.S808G); purchased DiscoveRx Corporation (KinomeScan)
Procedure, shortened: as §1

TRKB = target: T23, TRKB (Homo sapiens, UniProt Q16620)
T23 construct: purchased DiscoveRx Corporation (KinomeScan)
Procedure, shortened: as §1

ACVRL1 = target: T24, ACVRL1 (Homo sapiens, UniProt P37023)
T24 construct: purchased DiscoveRx Corporation (KinomeScan)
Procedure, shortened: as §1

ERBB3 = target: T25, ERBB3 (Homo sapiens, UniProt P21860)
T25 construct: purchased DiscoveRx Corporation (KinomeScan)
Procedure, shortened: as §1

[3] = target: T26, JAK2(JH1domain-catalytic) (Homo sapiens, UniProt O60674)
T26 construct: JAK2(JH1domain-catalytic); purchased DiscoveRx Corporation (KinomeScan)
Procedure, shortened: as §1

TXK = target: T27, TXK (Homo sapiens, UniProt P42681)
T27 construct: purchased DiscoveRx Corporation (KinomeScan)
Procedure, shortened: as §1

CTK = target: T28, CTK (Homo sapiens, UniProt P42679)
T28 construct: purchased DiscoveRx Corporation (KinomeScan)
Procedure, shortened: as §1

YANK1 = target: T29, YANK1 (Homo sapiens, UniProt Q8WU08)
T29 construct: purchased DiscoveRx Corporation (KinomeScan service)
Procedure, shortened: as §1

[4] = target: T30, RSK4(Kin.Dom.1-N-terminal) (Homo sapiens, UniProt Q9UK32)
T30 construct: Kin.Dom.1; purchased DiscoveRx Corporation (KinomeScan)
Procedure, shortened: as §1

BRK = target: T31, BRK (Homo sapiens, UniProt Q13882)
T31 construct: purchased DiscoveRx Corporation (KinomeScan)
Procedure, shortened: as §1

FLT3 = target: T32, FLT3 (Homo sapiens, UniProt P36888)
T32 construct: purchased DiscoveRx Corporation (KinomeScan)
Procedure, shortened: as §1

PCTK2 = target: T33, PCTK2 (Homo sapiens, UniProt Q00537)
T33 construct: purchased DiscoveRx Corporation (KinomeScan panel)
Procedure, shortened: as §1

T1 sequence (O75582 426-687 limits assumed): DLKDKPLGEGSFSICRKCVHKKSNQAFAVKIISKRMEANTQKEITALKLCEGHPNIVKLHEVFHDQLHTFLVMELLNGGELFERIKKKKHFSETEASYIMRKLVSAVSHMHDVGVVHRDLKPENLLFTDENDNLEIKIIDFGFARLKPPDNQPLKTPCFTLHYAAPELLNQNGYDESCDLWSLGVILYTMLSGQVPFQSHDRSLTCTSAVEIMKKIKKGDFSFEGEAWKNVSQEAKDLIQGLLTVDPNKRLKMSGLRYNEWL
T19 sequence (P10721 26-976 D816H): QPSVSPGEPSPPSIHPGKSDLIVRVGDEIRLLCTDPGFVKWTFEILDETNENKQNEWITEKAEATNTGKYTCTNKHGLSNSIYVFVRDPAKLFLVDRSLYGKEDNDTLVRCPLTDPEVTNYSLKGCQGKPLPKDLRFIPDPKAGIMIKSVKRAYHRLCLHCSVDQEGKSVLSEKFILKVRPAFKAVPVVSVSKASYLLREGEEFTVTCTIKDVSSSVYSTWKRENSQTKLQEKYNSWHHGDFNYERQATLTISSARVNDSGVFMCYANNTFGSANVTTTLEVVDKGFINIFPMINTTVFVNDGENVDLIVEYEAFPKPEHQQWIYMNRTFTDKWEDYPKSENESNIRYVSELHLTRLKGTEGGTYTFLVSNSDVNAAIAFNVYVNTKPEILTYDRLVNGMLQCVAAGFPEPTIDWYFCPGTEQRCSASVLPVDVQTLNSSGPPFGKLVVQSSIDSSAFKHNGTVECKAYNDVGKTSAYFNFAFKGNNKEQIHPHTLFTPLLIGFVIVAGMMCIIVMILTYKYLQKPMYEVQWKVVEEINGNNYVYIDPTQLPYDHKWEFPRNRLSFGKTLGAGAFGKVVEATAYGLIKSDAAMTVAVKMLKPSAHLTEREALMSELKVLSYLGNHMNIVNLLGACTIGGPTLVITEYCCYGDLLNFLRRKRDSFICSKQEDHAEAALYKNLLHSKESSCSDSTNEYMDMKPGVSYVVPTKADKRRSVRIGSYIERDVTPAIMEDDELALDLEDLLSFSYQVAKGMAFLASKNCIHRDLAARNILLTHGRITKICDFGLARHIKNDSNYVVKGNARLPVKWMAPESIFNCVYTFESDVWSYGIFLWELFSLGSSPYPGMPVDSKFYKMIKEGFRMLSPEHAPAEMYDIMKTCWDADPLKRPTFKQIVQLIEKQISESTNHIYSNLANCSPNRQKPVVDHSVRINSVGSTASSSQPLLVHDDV
T10 sequence (P53667 whole entry): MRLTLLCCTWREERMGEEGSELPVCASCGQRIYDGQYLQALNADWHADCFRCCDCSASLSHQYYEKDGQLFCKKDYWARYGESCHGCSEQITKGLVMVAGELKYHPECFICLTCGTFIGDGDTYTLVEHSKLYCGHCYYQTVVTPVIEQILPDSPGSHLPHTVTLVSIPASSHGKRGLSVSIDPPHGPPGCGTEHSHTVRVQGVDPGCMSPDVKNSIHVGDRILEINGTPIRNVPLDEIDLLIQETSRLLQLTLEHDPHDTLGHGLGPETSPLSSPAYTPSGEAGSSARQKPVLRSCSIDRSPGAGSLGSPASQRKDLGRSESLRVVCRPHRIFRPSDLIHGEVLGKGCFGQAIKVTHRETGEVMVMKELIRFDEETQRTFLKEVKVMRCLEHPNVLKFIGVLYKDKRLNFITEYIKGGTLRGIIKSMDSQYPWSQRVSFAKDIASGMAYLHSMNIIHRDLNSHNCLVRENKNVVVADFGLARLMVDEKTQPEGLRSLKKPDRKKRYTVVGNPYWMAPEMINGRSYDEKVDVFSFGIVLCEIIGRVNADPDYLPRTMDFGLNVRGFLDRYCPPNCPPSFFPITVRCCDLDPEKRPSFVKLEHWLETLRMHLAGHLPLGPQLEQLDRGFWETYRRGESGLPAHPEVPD
T4 sequence (P09619 33-1106): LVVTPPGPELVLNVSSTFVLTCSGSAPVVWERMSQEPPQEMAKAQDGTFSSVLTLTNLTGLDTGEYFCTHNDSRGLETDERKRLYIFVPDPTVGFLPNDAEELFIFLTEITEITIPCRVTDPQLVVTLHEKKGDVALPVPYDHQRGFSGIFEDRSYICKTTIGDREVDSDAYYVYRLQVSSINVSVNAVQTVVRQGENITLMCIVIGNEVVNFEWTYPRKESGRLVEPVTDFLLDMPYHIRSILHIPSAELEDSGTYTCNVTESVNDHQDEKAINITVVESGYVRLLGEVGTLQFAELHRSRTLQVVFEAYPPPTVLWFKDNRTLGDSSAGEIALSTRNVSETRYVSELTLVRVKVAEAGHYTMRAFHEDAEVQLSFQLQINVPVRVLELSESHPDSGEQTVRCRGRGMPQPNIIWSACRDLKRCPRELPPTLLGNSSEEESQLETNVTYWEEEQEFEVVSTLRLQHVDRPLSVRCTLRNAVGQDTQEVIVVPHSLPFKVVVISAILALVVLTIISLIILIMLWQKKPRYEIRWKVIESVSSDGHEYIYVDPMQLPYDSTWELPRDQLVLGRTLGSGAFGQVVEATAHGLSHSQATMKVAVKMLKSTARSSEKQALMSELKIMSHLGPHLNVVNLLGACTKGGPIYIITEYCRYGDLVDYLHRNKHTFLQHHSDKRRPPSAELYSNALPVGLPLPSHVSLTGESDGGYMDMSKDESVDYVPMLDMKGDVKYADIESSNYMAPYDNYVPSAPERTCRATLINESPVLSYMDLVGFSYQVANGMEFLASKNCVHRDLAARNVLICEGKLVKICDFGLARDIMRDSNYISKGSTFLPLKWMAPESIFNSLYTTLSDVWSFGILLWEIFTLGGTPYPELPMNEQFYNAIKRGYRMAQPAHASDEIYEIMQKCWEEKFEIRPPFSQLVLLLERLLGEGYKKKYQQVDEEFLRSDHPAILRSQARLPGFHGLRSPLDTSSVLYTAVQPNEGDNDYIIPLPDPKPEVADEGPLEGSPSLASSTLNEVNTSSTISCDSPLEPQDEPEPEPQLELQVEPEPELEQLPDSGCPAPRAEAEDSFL
T7 sequence (O94921 whole entry): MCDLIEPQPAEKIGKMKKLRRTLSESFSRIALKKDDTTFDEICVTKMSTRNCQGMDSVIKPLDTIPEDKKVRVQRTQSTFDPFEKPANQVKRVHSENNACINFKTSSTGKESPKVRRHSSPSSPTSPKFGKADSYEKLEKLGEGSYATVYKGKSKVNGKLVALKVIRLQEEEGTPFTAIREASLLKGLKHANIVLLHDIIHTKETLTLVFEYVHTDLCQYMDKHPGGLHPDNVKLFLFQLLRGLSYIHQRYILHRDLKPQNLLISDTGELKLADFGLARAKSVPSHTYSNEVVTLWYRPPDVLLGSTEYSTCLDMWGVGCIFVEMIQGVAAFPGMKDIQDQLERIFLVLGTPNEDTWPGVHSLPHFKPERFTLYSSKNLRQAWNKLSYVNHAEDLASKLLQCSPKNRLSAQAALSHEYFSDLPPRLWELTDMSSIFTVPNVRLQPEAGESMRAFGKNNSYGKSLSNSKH
T29 sequence (Q8WU08 whole entry): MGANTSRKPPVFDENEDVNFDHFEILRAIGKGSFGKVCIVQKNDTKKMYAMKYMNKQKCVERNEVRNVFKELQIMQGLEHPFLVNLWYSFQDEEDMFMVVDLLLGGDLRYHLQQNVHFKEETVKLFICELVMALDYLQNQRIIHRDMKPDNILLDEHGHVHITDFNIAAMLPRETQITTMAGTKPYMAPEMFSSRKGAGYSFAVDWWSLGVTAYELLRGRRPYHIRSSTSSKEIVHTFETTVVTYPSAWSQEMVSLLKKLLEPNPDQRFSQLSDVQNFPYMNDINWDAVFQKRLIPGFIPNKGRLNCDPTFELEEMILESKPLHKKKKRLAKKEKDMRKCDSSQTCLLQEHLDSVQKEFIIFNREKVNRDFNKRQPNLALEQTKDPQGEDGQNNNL
T30 sequence (Q9UK32 73-330 limits assumed): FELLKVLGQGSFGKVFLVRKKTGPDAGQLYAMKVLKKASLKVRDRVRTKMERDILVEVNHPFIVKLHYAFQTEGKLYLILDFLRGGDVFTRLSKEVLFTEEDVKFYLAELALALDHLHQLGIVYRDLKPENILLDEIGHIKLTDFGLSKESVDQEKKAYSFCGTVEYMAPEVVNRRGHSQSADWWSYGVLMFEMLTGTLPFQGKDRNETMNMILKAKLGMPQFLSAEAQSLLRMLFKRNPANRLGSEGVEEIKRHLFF
T18 sequence (P48730 whole entry): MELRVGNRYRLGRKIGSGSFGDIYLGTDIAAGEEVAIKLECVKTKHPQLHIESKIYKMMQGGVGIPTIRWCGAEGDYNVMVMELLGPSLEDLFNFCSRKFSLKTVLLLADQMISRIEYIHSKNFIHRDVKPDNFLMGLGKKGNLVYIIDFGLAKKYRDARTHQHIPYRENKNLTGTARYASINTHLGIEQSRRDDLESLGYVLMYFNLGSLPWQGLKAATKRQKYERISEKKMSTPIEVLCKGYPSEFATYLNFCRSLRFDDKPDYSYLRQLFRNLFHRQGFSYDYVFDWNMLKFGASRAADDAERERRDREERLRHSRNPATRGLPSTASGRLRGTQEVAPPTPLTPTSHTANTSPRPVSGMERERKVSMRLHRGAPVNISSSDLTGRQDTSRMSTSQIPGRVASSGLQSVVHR
T27 sequence (P42681 whole entry): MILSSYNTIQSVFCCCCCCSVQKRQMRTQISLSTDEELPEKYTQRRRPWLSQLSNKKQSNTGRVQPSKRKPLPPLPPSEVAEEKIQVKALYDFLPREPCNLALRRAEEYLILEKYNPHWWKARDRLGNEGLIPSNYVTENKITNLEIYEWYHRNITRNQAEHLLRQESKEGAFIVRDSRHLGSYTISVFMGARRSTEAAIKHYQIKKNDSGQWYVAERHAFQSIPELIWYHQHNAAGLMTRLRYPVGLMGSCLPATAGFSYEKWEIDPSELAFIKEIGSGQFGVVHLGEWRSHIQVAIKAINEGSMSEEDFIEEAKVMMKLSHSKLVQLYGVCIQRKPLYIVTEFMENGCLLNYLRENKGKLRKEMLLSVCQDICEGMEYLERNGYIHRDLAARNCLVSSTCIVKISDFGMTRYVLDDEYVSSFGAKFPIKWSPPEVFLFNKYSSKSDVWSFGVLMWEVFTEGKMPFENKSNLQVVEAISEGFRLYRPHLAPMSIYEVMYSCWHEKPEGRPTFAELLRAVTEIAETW

CCOP(=O)(CN1CCC(COc2cc3nccc(Oc4ccc(NC(=O)C5(C(=O)Nc6ccc(F)cc6)CC5)cc4F)c3cc2OC)CC1)OCC [Example 10, N1-[4-[[7-[[1-(diethoxyphosphorylmethyl)-4-piperidinyl]methoxyl]-6-methoxyl-4-quinolyl]oxyl]-3-fluorophenyl]-N1′-(4-fluorophenyl)cyclopropane-1,1-dicarboxamide]
% Ctrl@1000 nM [1]: 83 % Ctrl
% Ctrl@1000 nM (KIT(A829P)): 64 % Ctrl
% Ctrl@1000 nM (PIK3CA(Q546K)): 100 % Ctrl
% Ctrl@1000 nM (PDGFRB): 0 % Ctrl
% Ctrl@1000 nM (JNK2): 93 % Ctrl
% Ctrl@1000 nM (CSR1): 96 % Ctrl
% Ctrl@1000 nM (PFTK): 100 % Ctrl
% Ctrl@1000 nM (ULK3): 82 % Ctrl
% Ctrl@1000 nM (CAMK4): 100 % Ctrl
% Ctrl@1000 nM (LIMK1): 92 % Ctrl
% Ctrl@1000 nM [2]: 100 % Ctrl
% Ctrl@1000 nM (PRKG1): 100 % Ctrl
% Ctrl@1000 nM (RIPK4): 89 % Ctrl
% Ctrl@1000 nM (MINK): 100 % Ctrl
% Ctrl@1000 nM (DMPK2): 76 % Ctrl
% Ctrl@1000 nM (EGFR(S752-1759del)): 82 % Ctrl
% Ctrl@1000 nM (NEK3): 58 % Ctrl
% Ctrl@1000 nM (CSNK1D): 100 % Ctrl
% Ctrl@1000 nM (KIT(D816H)): 63 % Ctrl
% Ctrl@1000 nM (CSNK1G1): 100 % Ctrl
% Ctrl@1000 nM (MAP4K3): 20 % Ctrl
% Ctrl@1000 nM (GCN2(kin.dom.2.S808G)): 100 % Ctrl
% Ctrl@1000 nM (TRKB): 4 % Ctrl
% Ctrl@1000 nM (ACVRL1): 100 % Ctrl
% Ctrl@1000 nM (ERBB3): 98 % Ctrl
% Ctrl@1000 nM [3]: 100 % Ctrl
% Ctrl@1000 nM (TXK): 62 % Ctrl
% Ctrl@1000 nM (CTK): 100 % Ctrl
% Ctrl@1000 nM (YANK1): 100 % Ctrl
% Ctrl@1000 nM [4]: 77 % Ctrl
% Ctrl@1000 nM (BRK): 3.0 % Ctrl
% Ctrl@1000 nM (FLT3): 2.3 % Ctrl
% Ctrl@1000 nM (PCTK2): 100 % Ctrl
